Data on 59 substances can be found in patent publication US20250231185A1, “Coronavirus T Cell Epitopes, Megapools and Uses Thereof” (La Jolla Institute for Immunology, priority 2021, published 2025).

The first test concerns CD8+ T cells.
Assay: not given
The conditions noted are these: CD8RE megapool peptides (non-spike SARS-CoV-2 antigens); dominant epitope Yes/No; cited from earlier work.
Take 3037 (IPIQASLPF) [compound 3037]: the Dominant entry was “Yes (more dominant epitopes are defined by being recognized by 3 or more donors/different studies)”.
On to 3038 (IVGVALLAVF) [compound 3038], for which the Dominant entry was “Yes (more dominant epitopes are defined by being recognized by 3 or more donors/different studies)”.
For the substance 3039 (ALSKGVHFV) [compound 3039], the Dominant result is “Yes (more dominant epitopes are defined by being recognized by 3 or more donors/different studies)”.
Take 3040 (YLYALVYFL) [compound 3040]: the Dominant result is “Yes (more dominant epitopes are defined by being recognized by 3 or more donors/different studies)”.
As for 3041 (VYFLQSINF) [compound 3041], the Dominant result is “Yes (more dominant epitopes are defined by being recognized by 3 or more donors/different studies)”.
Consider 3042 (LLYDANYFL) [compound 3042], for which the Dominant entry was “Yes (more dominant epitopes are defined by being recognized by 3 or more donors/different studies)”.
With 3043 (FTSDYYQLY) [compound 3043], the Dominant entry is “Yes (more dominant epitopes are defined by being recognized by 3 or more donors/different studies)”.
In the case of 3044 (YYQLYSTQL) [compound 3044], the Dominant result is listed as “Yes (more dominant epitopes are defined by being recognized by 3 or more donors/different studies)”.
On to 3045 (HLVDFQVTI) [compound 3045], for which the Dominant entry was “Yes (more dominant epitopes are defined by being recognized by 3 or more donors/different studies)”.
On to 3046 (QLRARSVSPK) [compound 3046], for which the Dominant result is on record as “Yes (more dominant epitopes are defined by being recognized by 3 or more donors/different studies)”.
For 3047 (RARSVSPKL) [compound 3047], the Dominant result was “Yes (more dominant epitopes are defined by being recognized by 3 or more donors/different studies)”.
3048 (KLFIRQEEV) [compound 3048]: the Dominant result is listed as “Yes (more dominant epitopes are defined by being recognized by 3 or more donors/different studies)”.
As for 3049 (VFITLCFTLK) [compound 3049], the Dominant entry is listed as “Yes (more dominant epitopes are defined by being recognized by 3 or more donors/different studies)”.
Take 3050 (IMLIIFWFSL) [compound 3050]: the Dominant result is recorded as “Yes (more dominant epitopes are defined by being recognized by 3 or more donors/different studies)”.
As to 3051 (IQYIDIGNY) [compound 3051], the Dominant result was “Yes (more dominant epitopes are defined by being recognized by 3 or more donors/different studies)”.
Turning to 3052 (KLGSLVVRC) [compound 3052], the Dominant result is recorded as “Yes (more dominant epitopes are defined by being recognized by 3 or more donors/different studies)”.
As to 3053 (LEYHDVRVVL) [compound 3053], the Dominant entry is on record as “Yes (more dominant epitopes are defined by being recognized by 3 or more donors/different studies)”.

The same test, now with this note: HLA-A*01:01 epitopes overlapping TTDPSFLGRY; Saini et al.; cited from earlier work.
Consider HTTDPSFLGRY [nsp3 818-828], for which the dominance as reported entry is “particularly dominant”.
As to TTDPSFLGRYM [nsp3 819-829], the dominance as reported result is listed as “particularly dominant”.

The same test, now with this note: Habel et al., 14 peptides screened; HLA-A*02:01; cited from earlier work.
For the substance “ORF1ab 3183-3191: SARS-CoV-2 ORF1ab 3183-3191 CD8 epitope among 14 peptides screened in the Habel et al. study (FLLNKEMYL; CD8 epitope peptide; UniProt P0DTD1 3183-3191, looked up, fragment) [reference compound]”, the IFN-f response result is recorded as “less prominently recognized”.
With VLNDILSRL [SEQ ID NO: 1508], the IFN-f response result is “less prominently recognized”.

Staying with this test, now noted: Nelde et al.; HLA-A*01:01 restricted; cited from earlier work.
Take TTDPSFLGRY [nsp3 819-828]: the “positive in donors tested” value is 83%.

Staying with this test, now noted: Rha et al.; 37 of 112 and 2 of 40 patients; cited from earlier work.
FIAGLIAIV [SEQ ID NO: 1520]: the “responses detected in patients” value is given as 5%.

The subject of the next test is CD8+ T cells. As to the kind of experiment: Meta-analysis of published SARS-CoV-2 CD8 T cell epitope data curated in the IEDB (25 studies). The test is classed as cell-based, human. The conditions noted are these: CD8 epitopes; Yes = recognized by 3 or more donors/different studies.
Regarding 420 (SLVKPSFYV) [compound 420], the Dominant result is “Yes (more dominant epitopes are defined by being recognized by 3 or more donors/different studies)”.
Same read-out and setting: the same measure for 423 (YVYSRVKNL) [compound 423]: “Yes (more dominant epitopes are defined by being recognized by 3 or more donors/different studies)”.
Take 425 (GTITVEELK) [compound 425]: the Dominant result is “Yes (more dominant epitopes are defined by being recognized by 3 or more donors/different studies)”.
On to 426 (KLLEQWNLV) [compound 426], for which the Dominant result is “Yes (more dominant epitopes are defined by being recognized by 3 or more donors/different studies)”.
Turning to 427 (FLFLTWICL) [compound 427], the Dominant entry is reported as “Yes (more dominant epitopes are defined by being recognized by 3 or more donors/different studies)”.
The same measure, in the same setting: next, 429 (LQFAYANRNRFLY) [compound 429]: “Yes (more dominant epitopes are defined by being recognized by 3 or more donors/different studies)”.
Take 437 (NRFLYIIKL) [compound 437]: the Dominant entry is given as “Yes (more dominant epitopes are defined by being recognized by 3 or more donors/different studies)”.
Regarding 442 (TLACFVLAAV) [compound 442], the Dominant entry is on record as “Yes (more dominant epitopes are defined by being recognized by 3 or more donors/different studies)”.
With 451 (SYFIASFRLFA) [compound 451], the Dominant entry was “Yes (more dominant epitopes are defined by being recognized by 3 or more donors/different studies)”.
As to 455 (RLFARTRSMW) [compound 455], the Dominant result is “Yes (more dominant epitopes are defined by being recognized by 3 or more donors/different studies)”.
On to 457 (SMWSFNPET) [compound 457], for which the Dominant result is on record as “Yes (more dominant epitopes are defined by being recognized by 3 or more donors/different studies)”.
463 (SELVIGAVIL) [compound 463]: the Dominant result was “Yes (more dominant epitopes are defined by being recognized by 3 or more donors/different studies)”.
For the substance 466 (AVILRGHLR) [compound 466], the Dominant result was “Yes (more dominant epitopes are defined by being recognized by 3 or more donors/different studies)”.
As for 467 (HLRIAGHHLGR) [compound 467], the Dominant entry was “Yes (more dominant epitopes are defined by being recognized by 3 or more donors/different studies)”.
Regarding 471 (TVATSRTLSYYK) [compound 471], the Dominant entry is listed as “Yes (more dominant epitopes are defined by being recognized by 3 or more donors/different studies)”.
On to 475 (ATSRTLSYYK) [compound 475], for which the Dominant entry is recorded as “Yes (more dominant epitopes are defined by being recognized by 3 or more donors/different studies)”.
For the substance 476 (ATSRTLSYY) [compound 476], the Dominant entry is on record as “Yes (more dominant epitopes are defined by being recognized by 3 or more donors/different studies)”.
On to 477 (ASQRVAGDSGFAAY) [compound 477], for which the Dominant entry was “Yes (more dominant epitopes are defined by being recognized by 3 or more donors/different studies)”.
For 484 (RYRIGNYKL) [compound 484], the Dominant entry is listed as “Yes (more dominant epitopes are defined by being recognized by 3 or more donors/different studies)”.
Consider 491 (NTASWFTAL) [compound 491], for which the Dominant result was “Yes (more dominant epitopes are defined by being recognized by 3 or more donors/different studies)”.
492 (KFPRGQGVPI) [compound 492]: the Dominant result is reported as “Yes (more dominant epitopes are defined by being recognized by 3 or more donors/different studies)”.
Consider 493 (FPRGQGVPI) [compound 493], for which the Dominant result was “Yes (more dominant epitopes are defined by being recognized by 3 or more donors/different studies)”.
In the case of 494 (NTNSSPDDQIGYY) [compound 494], the Dominant result is “Yes (more dominant epitopes are defined by being recognized by 3 or more donors/different studies)”.
For 497 (YYRRATRRIR) [compound 497], the Dominant result was “Yes (more dominant epitopes are defined by being recognized by 3 or more donors/different studies)”.
On the same count and under the same terms, next, 498 (RIRGGDGKMK) [compound 498]: “Yes (more dominant epitopes are defined by being recognized by 3 or more donors/different studies)”; 499 (KMKDLSPRW) [compound 499]: “Yes (more dominant epitopes are defined by being recognized by 3 or more donors/different studies)”.

The test is the same for the next values; noted with them: SARS-CoV-2-derived CD8 epitopes; dominant = recognized by 3 or more donors/different studies.
With 719 (NYMPYFFTL) [compound 719], the Dominant entry was “Yes (more dominant epitopes are defined by being recognized by 3 or more donors/different studies)”.
On to 723 (ASMPTTIAK) [compound 723], for which the Dominant result is given as “Yes (more dominant epitopes are defined by being recognized by 3 or more donors/different studies)”.
For the substance 737 (SLDTYPSLETI) [compound 737], the Dominant result is “Yes (more dominant epitopes are defined by being recognized by 3 or more donors/different studies)”.
Take 745 (AYILFTRFFYV) [compound 745]: the Dominant result is listed as “Yes (more dominant epitopes are defined by being recognized by 3 or more donors/different studies)”.
As to 747 (ILFTRFFYV) [compound 747], the Dominant result is listed as “Yes (more dominant epitopes are defined by being recognized by 3 or more donors/different studies)”.
With 754 (YIFFASFYY) [compound 754], the Dominant result is reported as “Yes (more dominant epitopes are defined by being recognized by 3 or more donors/different studies)”.
As to 772 (QLMCQPILLL) [compound 772], the Dominant result is recorded as “Yes (more dominant epitopes are defined by being recognized by 3 or more donors/different studies)”.
As for 781 (STFNVPMEK) [compound 781], the Dominant result is on record as “Yes (more dominant epitopes are defined by being recognized by 3 or more donors/different studies)”.
With 808 (FLPRVFSAV) [compound 808], the Dominant result is “Yes (more dominant epitopes are defined by being recognized by 3 or more donors/different studies)”.
Take 810 (FSAVGNICY) [compound 810]: the Dominant entry is “Yes (more dominant epitopes are defined by being recognized by 3 or more donors/different studies)”.
